Source: publication PMC11148080, “Ru(II)-based complexes containing 2-thiouracil derivatives suppress liver cancer stem cells by targeting NF-κB and Akt/mTOR signaling” (Cell Death Discovery, 2024)

Tested on: HepG2 cells
Test: EMT markers vimentin and E-cadherin by flow cytometry
Type: cell-based, human
Conditions: HepG2, 24 h; 6 μM complex 2
Procedure: To stain the cell surface proteins, the cells were washed with an incubation buffer (0.5% bovine serum albumin in PBS), and then antibodies were added and incubated for 1 h at room temperature. The cells were then washed with PBS, and the fluorescence signal was measured by flow cytometry. CD133 and CD44 were quantified in YO-PRO-1 (Sigma‒Aldrich Co.) negative cells.
To stain intracellular proteins, the cells were harvested and resuspended in 0.5-1 mL of 4% formaldehyde for 10 min at 37 °C. The tube was then placed on ice for 1 min, after which the cells were prechilled and permeabilized using a sequence of 100% (30 min) to 90% (30 min) methanol with gentle mixing. After washing with incubation buffer (0.5% bovine serum albumin in PBS), primary antibodies were added and incubated for 1 h at room temperature. Finally, the cells were washed with PBS, and flow cytometry was used to measure cell fluorescence.

With Cc1cc(=O)nc([S][Ru+])[nH]1.F[P-](F)(F)(F)(F)F.c1ccc(-c2ccccn2)nc1.c1ccc(P(c2ccccc2)c2ccccc2)cc1.c1ccc(P(c2ccccc2)c2ccccc2)cc1 [Complex 2, trans-[Ru(6m2TU)(PPh3)2(bipy)]PF6] the E-cadherin expression was “increased” and the vimentin expression was “reduced”.
